Test results from PMC6009932, “Small molecule purine and pseudopurine derivatives: synthesis, cytostatic evaluations and investigation of growth inhibitory effect in non-small cell lung cancer A549” (Journal of Enzyme Inhibition and Medicinal Chemistry, 2017).

Experiments:
[1] = tested on: WI38 normal human lung fibroblasts; test: Proliferation assay (MTT, 72 h) on normal lung fibroblasts WI38; format: cell-based; settings: WI-38, read-out: IC50 WI38/HFF-1 (WI38)
Procedure: (§1) Human carcinoma cell lines A549 (lung carcinoma), HeLa (cervical carcinoma), SW620 (colorectal adenocarcinoma, metastatic), and CFPAC-1 (pancreatic cancer, derived from metastatic: liver), normal human lung (WI38) and foreskin (HFF-1) fibroblasts were obtained from the American Type Culture Collection (ATCC). Cells were cultured in humidified atmosphere at 37 °C with 5% CO2. As growth medium, Dulbecco’s modified Eagle medium (DMEM) was used with the addition of foetal bovine serum (10%), L-glutamine (2 mM) and antibiotics: streptomycin (100 µg/ml) and penicillin (100 U/ml).
(§2) Cells were seeded onto 96-well microtiter plates at a seeding density of 3000 cells/well for carcinoma cell lines, and 5000 cells/well for normal human fibroblasts. The next day, cells were treated with test agents in five different concentrations (0.01–100 µM) and further incubated for 72 h. […] Following 72 h incubation, the MTT assay was performed and measured absorbances were transformed into percentage of cell growth as described previously. Results were obtained from three independent experiments. IC50 values were calculated using linear regression analysis and results were statistically analysed by ANOVA, Tukey post-hoc test (p < .05).

[2] = tested on: A549 (lung carcinoma); test: Proliferation assay (MTT, 72 h) on A549; format: cell-based; settings: Homo sapiens, A549 lung adenocarcinoma
Procedure: as §1, §2

[3] = tested on: CFPAC-1 (ductal pancreatic adenocarcinoma); test: Proliferation assay (MTT, 72 h) on CFPAC-1; format: cell-based; settings: Homo sapiens
Procedure: as §1, §2

[4] = tested on: SW620 (colorectal adenocarcinoma, metastatic); test: Proliferation assay (MTT, 72 h) on SW620; format: cell-based; settings: Homo sapiens, SW-620
Procedure: as §1, §2

[5] = tested on: HeLa (cervical carcinoma); test: Proliferation assay (MTT, 72 h) on HeLa; format: cell-based; settings: Homo sapiens
Procedure: as §1, §2

## FC(F)(F)c1ccc(-n2cc(Cn3cnc4ccnc(Cl)c43)nn2)cc1 [Compound 7c, 4-Chloro-3-{[1-(4-(trifluoromethyl)phenyl)-1H-1,2,3-triazol-4-yl]methyl}-3H-imidazo[4,5-c]pyridine]
[1]
  IC50: 19.4 µM
[2]
  IC50: > 100 µM
other
  melting point: 183 to 185 °C
[3]
  IC50: 89.2 µM
[4]
  IC50: 69 µM
[5]
  IC50: 36.8 µM

## O=c1cc(Cn2cc(Cn3cnc4c(Cl)nccc43)nn2)c2ccc(O)cc2o1 [Compound 5e]
[1]
  IC50: 60.5 µM
[2]
  IC50: > 100 µM
[3]
  IC50: > 100 µM
[4]
  IC50: > 100 µM
[5]
  IC50: > 100 µM

## Fc1ccc(-n2cc(Cn3cnc4ccccc43)nn2)cc1 [Compound 12a, 1-{[1-(4-fluorophenyl)-1H-1,2,3-triazol-4-yl]met-hyl}-1H-benzo[d]imidazole]
[1]
  IC50: 91.9 µM
[2]
  IC50: 76.3 µM
[3]
  IC50: 86.5 µM
[4]
  IC50: 99.9 µM
[5]
  IC50: 71.7 µM

## O=c1cc(Cn2cc(Cn3cnc4c(Cl)ncnc43)nn2)c2ccc(O)cc2o1 [Compound 4e, 4-{[4-((6-Chloro-9H-purin-9-yl)methyl)-1H-1,2,3-triazol-1-yl]methyl}-7-hydroxy-2H-chromen-2-one]
[1]
  IC50: 6.58 µM
[2]
  IC50: 89 µM
[3]
  IC50: > 100 µM
[4]
  IC50: 92.5 µM
[5]
  IC50: 58 µM

## O=c1cc(Cn2cc(Cn3cnc4ccccc43)nn2)c2ccc(O)cc2o1 [Compound 12e, 4-{4-[((1H-benzo[d]imidazol-1-yl)methyl)-1H-1,2,3-triazol-1-yl]methyl}-7-hydroxy-4a,8a-dihydro-2H-chromen-2-on]
[1]
  IC50: > 100 µM
[2]
  IC50: > 100 µM
[3]
  IC50: > 100 µM
[4]
  IC50: > 100 µM
[5]
  IC50: > 100 µM

## Fc1ccc(-n2cc(Cn3ccc4cc(F)ccc43)nn2)cc1 [Compound 10a, 1-{[1-(4-Fluorophenyl)-1H-1,2,3-triazol-4-yl]methyl}-5-fluoro-1H-indole]
[1]
  IC50: > 100 µM
[2]
  IC50: > 100 µM
[3]
  IC50: > 100 µM
[4]
  IC50: > 100 µM
[5]
  IC50: > 100 µM

## Fc1ccc2c(ccn2Cc2cn(-c3ccc(C(F)(F)F)cc3)nn2)c1 [Compound 10c, 5-Fluoro-1-{[1–(4-(trifluoromethyl)phenyl)-1 H-1,2,3-triazol-4-yl]methyl}-1 H-indole]
[1]
  IC50: 24 µM
[2]
  IC50: 71.6 µM
other
  melting point: 151 to 154 °C
[3]
  IC50: 64.7 µM
[4]
  IC50: 54.2 µM
[5]
  IC50: 53 µM

## Fc1ccccc1-n1cc(Cn2cnc3ccccc32)nn1 [Compound 12d, 1-{[1–(2-fluorophenyl)-1H-1,2,3-triazol-4-yl]methyl}-1H-benzo[d]imidazole]
[1]
  IC50: 30.6 µM
[2]
  IC50: 36.2 µM
[3]
  IC50: 34.7 µM
[4]
  IC50: > 100 µM
[5]
  IC50: 21.9 µM

## Clc1ccc(-n2cc(Cn3ccc4c(Cl)ncnc43)nn2)cc1 [Compound 8b, 4-Chloro-7-{[1-(4-chlorophenyl)-1H-1,2,3-triazol-4-yl]methyl}-7H-pyrrolo[2,3-d]pyrimidine]
[1]
  IC50: 21 µM
[2]
  IC50: 64.5 µM
[3]
  IC50: 47.7 µM
[4]
  IC50: 44.6 µM
[5]
  IC50: 65.5 µM

## Fc1ccc2c(ccn2Cc2cn(-c3ccc(Cl)cc3)nn2)c1 [Compound 10b]
[1]
  IC50: 58.1 µM
[2]
  IC50: 40.2 µM
other
  melting point: 117 to 120 °C
[3]
  IC50: > 100 µM
[4]
  IC50: 45.8 µM
[5]
  IC50: 31 µM

## O=c1cc(Cn2cc(Cn3ccc4c(Cl)ncnc43)nn2)c2ccc(O)cc2o1 [Compound 8e, 4-{[4-((4-Chloro-7H-pyrrolo[2,3-d]pyrimidin-7-yl)methyl)-1H-1,2,3-triazol-1-yl]methyl}-7-hydroxy-2H-chromen-2-one]
[1]
  IC50: 39.9 µM
[2]
  IC50: 69.2 µM
other
  melting point: 202 to 204 °C
[3]
  IC50: 36.3 µM
[4]
  IC50: 73.5 µM
[5]
  IC50: 33.6 µM

## FC(F)(F)c1ccc(-n2cc(Cn3cnc4c(Cl)nccc43)nn2)cc1 [Compound 5c, 4-Chloro-1-{[1-(4-(trifluoromethyl)phenyl)-1H-1,2,3-triazol-4-yl]methyl}-1H-imidazo[4,5-c]pyridine]
[1]
  IC50: 5.21 µM
[2]
  IC50: 9.43 µM
other
  melting point: 151 to 154 °C
[3]
  IC50: 7.39 µM
[4]
  IC50: 11.8 µM
[5]
  IC50: 22.5 µM

## Fc1ccccc1-n1cc(Cn2cnc3c(Cl)nccc32)nn1 [Compound 5d, 4-Chloro-1-{[1–(2-fluorophenyl)-1H-1,2,3-triazol-4-yl]methyl}-1H-imidazo[4,5-c]pyridine]
[1]
  IC50: 23.9 µM
[2]
  IC50: 73.9 µM
other
  melting point: 124 to 127 °C
[3]
  IC50: > 100 µM
[4]
  IC50: 90.2 µM
[5]
  IC50: > 100 µM

## Fc1ccc(-n2cc(Cn3cnc4c(Cl)ncnc43)nn2)cc1 [Compound 4a, 6-Chloro-9-{[1–(4-fluorophenyl)-1 H-1,2,3-triazol-4-yl]methyl}-9 H-purine]
[1]
  IC50: 5.21 µM
[2]
  IC50: 53.2 µM
[3]
  IC50: 33.4 µM
[4]
  IC50: 38.9 µM
[5]
  IC50: 34.2 µM

## FC(F)(F)c1ccc(-n2cc(Cn3cnc4ccccc43)nn2)cc1 [Compound 12c, 1-{[1–(4-(trifluoromethyl)phenyl)-1H-1,2,3-triazol-4-yl]methyl}-1H-benzo[d]imidazole]
[1]
  IC50: > 100 µM
[2]
  IC50: 14.2 µM
[3]
  IC50: 56.4 µM
[4]
  IC50: > 100 µM
[5]
  IC50: 30.6 µM

## O=c1cc(Cn2cc(Cn3cnc4ncnc(Cl)c43)nn2)c2ccc(O)cc2o1 [Compound 6e, 4-{[4-((6-Chloro-7H-purin-7-yl)methyl)-1H-1,2,3-triazol-1-yl]methyl}-7-hydroxy-2H-chromen-2-one]
[1]
  IC50: 73.6 µM
[2]
  IC50: > 100 µM
other
  melting point: > 250 °C
[3]
  IC50: > 100 µM
[4]
  IC50: > 100 µM
[5]
  IC50: > 100 µM

## FC(F)(F)c1ccc(-n2cc(Cn3cc(Br)c4c(Cl)ncnc43)nn2)cc1 [Compound 9c, 5-Bromo-4-chloro-7-{[1-(4-(trifluoromethyl)phenyl)-1H-1,2,3-triazol-4-yl]methyl}-7H-pyrrolo[2,3-d]pyrimidine]
[1]
  IC50: 57.5 µM
[2]
  IC50: 66.4 µM
other
  melting point: 220 to 221 °C
[3]
  IC50: 62.8 µM
[4]
  IC50: 55.7 µM
[5]
  IC50: 32.9 µM

## Fc1ccccc1-n1cc(Cn2cnc3c(Cl)ncnc32)nn1 [Compound 4d, 6-Chloro-9-{[1-(2-fluorophenyl)-1H-1,2,3-triazol-4-yl]methyl}-9H-purine]
[1]
  IC50: 23.9 µM
[2]
  IC50: 54.6 µM
other
  melting point: 143 to 145 °C
[3]
  IC50: 31.1 µM
[4]
  IC50: 41.8 µM
[5]
  IC50: 33.2 µM

## O=c1cc(Cn2cc(Cn3cnc4ccnc(Cl)c43)nn2)c2ccc(O)cc2o1 [Compound 7e, 4-{[4-((4-Chloro-3H-imidazo[4,5-c]pyridin-3-yl)methyl)-1H-1,2,3-triazol-1-yl]methyl}-7-hydroxy-2H-chromen-2-one]
[1]
  IC50: 7.62 µM
[2]
  IC50: > 100 µM
[3]
  IC50: > 100 µM
[4]
  IC50: > 100 µM
[5]
  IC50: 8.77 µM

## O=c1cc(Cn2cc(Cn3cc(Br)c4c(Cl)ncnc43)nn2)c2ccc(O)cc2o1 [Compound 9e, 4-{[4-((5-Bromo-4-chloro-7H-pyrrolo[2,3-d]pyrimidin-7-yl)methyl)-1H-1,2,3-triazol-1-yl]methyl}-7-hydroxy-2H-chromen-2-one]
[1]
  IC50: 10.8 µM
[2]
  IC50: 45.5 µM
other
  melting point: > 250 °C
[3]
  IC50: 47.3 µM
[4]
  IC50: 45.1 µM
[5]
  IC50: 24.5 µM

## FC(F)(F)c1ccc(-n2cc(Cn3ccc4c(Cl)ncnc43)nn2)cc1 [Compound 8c, 4-Chloro-7-{[1-(4-(trifluoromethyl)phenyl)-1H-1,2,3-triazol-4-yl]methyl}-7H-pyrrolo[2,3-d]pyrimidine]
[1]
  IC50: 4.62 µM
[2]
  IC50: 46.9 µM
[3]
  IC50: 46.6 µM
[4]
  IC50: 37.1 µM
[5]
  IC50: 38.8 µM

## Fc1ccc2c(ccn2Cc2cn(-c3ccccc3F)nn2)c1 [Compound 10d, 5-Fluoro-1-{[1-(2-fluorophenyl)-1H-1,2,3-triazol-4-yl]methyl}-1H-indole]
[1]
  IC50: > 100 µM
[2]
  IC50: > 100 µM
[3]
  IC50: > 100 µM
[4]
  IC50: > 100 µM
[5]
  IC50: 82.9 µM

## Fc1ccccc1-n1cc(Cn2cc(Br)c3c(Cl)ncnc32)nn1 [Compound 9d, 5-Bromo-4-chloro-7-{[1–(2-fluorophenyl)-1 H-1,2,3-triazol-4-yl]methyl}-7 H-pyrrolo[2,3-d]pyrimidine]
[1]
  IC50: 48.5 µM
[2]
  IC50: 86.4 µM
other
  melting point: 145 to 147 °C
[3]
  IC50: 65.1 µM
[4]
  IC50: 65.9 µM
[5]
  IC50: 20 µM

## FC(F)(F)c1ccc(-n2cc(Cn3cnc4c(Cl)ncnc43)nn2)cc1 [Compound 4c, 6-Chloro-9-{[1-(4-(trifluoromethyl)phenyl)-1H-1,2,3-triazol-4-yl]methyl}-9H-purine]
[1]
  IC50: 0.75 µM
[2]
  IC50: 15.9 µM
[3]
  IC50: 7.9 µM
[4]
  IC50: 14.7 µM
[5]
  IC50: 12.3 µM

## Fc1ccc(-n2cc(Cn3ccc4c(Cl)ncnc43)nn2)cc1 [Compound 8a, 4-Chloro-7-{[1-(4-fluorophenyl)-1H-1,2,3-triazol-4-yl]methyl}-7H-pyrrolo[2,3-d]pyrimidine]
[1]
  IC50: 32.2 µM
[2]
  IC50: 85.4 µM
[3]
  IC50: 48.4 µM
[4]
  IC50: 8.5 µM
[5]
  IC50: 39.4 µM
